Measured values taken from patent publication US20250255959A1, “A SYSTEM FOR DRUG-INDUCIBLE EXPRESSION OF A POLYNUCLEOTIDE” (Miltenyi Biotec B.V. & Co. KG, priority 2022, published 2025).

What was measured:
[1] = test system: anti-CD20 CAR expression in primary T cells; assay: Induction of anti-CD20 CAR expression in transduced primary T cells, flow cytometry; type: cell-based, human; conditions: 0-250 nM 4-OHT, 40 h
Procedure: Lentiviral particles encoding for the different drug-inducible cassettes were manufactured as described in example 1.2. Drug-inducible T cells were generated as described in example 1.3. 1E4 LNGFR positive drug-inducible T cells were seeded in 100 μL TexMACS medium (Miltenyi Biotec) supplemented with IL-7 (Miltenyi Biotec) and IL-15 (Miltenyi Biotec) in a 96-round bottom well plate. Anti-CD20 CAR expression was induced by the addition of different concentrations of 4-OHT (0-250 nM, Sigma-Aldrich) in 100 μL μL TexMACS medium (Miltenyi Biotec) supplemented with IL-7 (Miltenyi Biotec) and IL-15 (Miltenyi Biotec) to each well. Untransduced T cells constitute the negative control. T cells that 10 constitutively express an anti-CD20 CAR (“direct CAR”) represent the positive control. Cells were incubated at 37° C. and 5% CO2. T cells were analyzed 40h post induction for anti-CD20 CAR expression by flow cytometry using anti-CD20 CAR detection reagent-PE. […]
Staining was performed for 10 min at 4° C. followed by two successive washing steps with 200 L PEB (300 g, 5 min). […] Frequency of anti-CD20 CAR+inducible T cells (left graph) and mean fluorescence intensity (MFI) of anti-CD20 CAR expression (right graph) was determined and normalized to the expression of the transduction marker LNGFR. […]

[2] = cited from earlier work

## 4-hydroxytamoxifen [4-OHT]
[1]
  anti-CD20 CAR surface expression (MFI) versus drug dose: steadily increased with the drug dose
  induction ratios of anti-CD20 CAR expression versus drug dose: higher drug doses resulting in greater induction ratios

## CC/C(=C(\c1ccccc1)c1ccc(OCCN(C)C)cc1)c1ccccc1 [tamoxifen, 2-(4-((1Z)-1,2-diphenyl-1-butenyl)phenoxy)-N,N-dimethylethanamine]
[2]; after 80 days of daily dosing
  steady-state plasma levels: 71 to 183 ng/mL
[2]; single oral dose of 20 mg
  average peak plasma concentration: 40 ng/mL
